Columns and labels:
Settings in all cases: incubation time: 72 h
BT-474 [1] = test: normalised response (% of control), CellTiter-Glo; higher = more viable cells (100 = DMSO, 0 = benzethonium chloride kill control)
Summary of the method: (§1)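 Every value is a normalised signal taken at one concentration of a dilution series. Compound was placed in 384-well plates at 5 concentrations in 10-fold steps over a compound-specific 10,000-fold range, and 20 µl of breast cancer cell suspension was seeded onto it. After 72 h, CellTox Green fluorescence (485/520 nm) was measured first and CellTiter-Glo luminescence second, following 10 min at room temperature. Each plate was scaled to 0.1 % DMSO (100) and a positive kill control (0).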

BT-549 [2] = test: as above
Summary of the method: as §1

CAL-120 [3] = test: as above
Summary of the method: as §1

CAL-148 [4] = test: as above
Summary of the method: as §1

CAL-51 [5] = test: as above
Summary of the method: as §1

CAL-85-1 [6] = test: as above
Summary of the method: as §1

DU-4475 [7] = test: as above
Summary of the method: as §1

HCC1143 [8] = test: as above
Summary of the method: as §1

HCC1599 [9] = test: as above
Summary of the method: as §1

HCC1937 [10] = test: as above
Summary of the method: as §1

HDQ-P1 [11] = test: as above
Summary of the method: as §1

Hs578T [12] = test: as above
Summary of the method: as §1

MCF-10A = test: as above
Summary of the method: as §1

MDA-MB-231 [13] = test: as above
Summary of the method: as §1

MDA-MB-436 [14] = test: as above
Summary of the method: as §1

MDA-MB-453 [15] = test: as above
Summary of the method: as §1

MDA-MB-468 [16] = test: as above
Summary of the method: as §1

MFM-223 [17] = test: as above
Summary of the method: as §1

SK-BR-3 [18] = test: as above
Summary of the method: as §1

BT-474 [19] = test: normalised viability (% of control), CellTiter-Blue; higher = more viable cells (100 = DMSO, 0 = benzethonium chloride kill control)
Procedure: (§2)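 DSRT, CellTiter-Blue viability, 72 h incubation. Signal is normalised to DMSO and benzethonium chloride controls. Value is the normalised response at dose 1.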

BT-549 [20] = test: as above
Procedure: as §2

CAL-120 [21] = test: as above
Procedure: as §2

CAL-148 [22] = test: as above
Procedure: as §2

CAL-51 [23] = test: as above
Procedure: as §2

CAL-85-1 [24] = test: as above
Procedure: as §2

DU-4475 [25] = test: as above
Procedure: as §2

HCC1143 [26] = test: as above
Procedure: as §2

HCC1599 [27] = test: as above
Procedure: as §2

HCC1937 [28] = test: as above
Procedure: as §2

HDQ-P1 [29] = test: as above
Procedure: as §2

Hs578T [30] = test: as above
Procedure: as §2

MDA-MB-231 [31] = test: as above
Procedure: as §2

MDA-MB-436 [32] = test: as above
Procedure: as §2

MDA-MB-453 [33] = test: as above
Procedure: as §2

MDA-MB-468 [34] = test: as above
Procedure: as §2

MFM-223 [35] = test: as above
Procedure: as §2

SK-BR-3 [36] = test: as above
Procedure: as §2

| SMILES | normalised response (BT-474 [1]) | normalised response (BT-549 [2]) | normalised response (CAL-120 [3]) | normalised response (CAL-148 [4]) | normalised response (CAL-51 [5]) | normalised response (CAL-85-1 [6]) | normalised response (DU-4475 [7]) | normalised response (HCC1143 [8]) | normalised response (HCC1599 [9]) | normalised response (HCC1937 [10]) | normalised response (HDQ-P1 [11]) | normalised response (Hs578T [12]) | normalised response (MCF-10A) | normalised response (MDA-MB-231 [13]) | normalised response (MDA-MB-436 [14]) | normalised response (MDA-MB-453 [15]) | normalised response (MDA-MB-468 [16]) | normalised response (MFM-223 [17]) | normalised response (SK-BR-3 [18]) | normalised viability (BT-474 [19]) | normalised viability (BT-549 [20]) | normalised viability (CAL-120 [21]) | normalised viability (CAL-148 [22]) | normalised viability (CAL-51 [23]) | normalised viability (CAL-85-1 [24]) | normalised viability (DU-4475 [25]) | normalised viability (HCC1143 [26]) | normalised viability (HCC1599 [27]) | normalised viability (HCC1937 [28]) | normalised viability (HDQ-P1 [29]) | normalised viability (Hs578T [30]) | normalised viability (MDA-MB-231 [31]) | normalised viability (MDA-MB-436 [32]) | normalised viability (MDA-MB-453 [33]) | normalised viability (MDA-MB-468 [34]) | normalised viability (MFM-223 [35]) | normalised viability (SK-BR-3 [36]) |
| --- | --- | --- | --- | --- | --- | --- | --- | --- | --- | --- | --- | --- | --- | --- | --- | --- | --- | --- | --- | --- | --- | --- | --- | --- | --- | --- | --- | --- | --- | --- | --- | --- | --- | --- | --- | --- | --- |
| COc1cc2c(cc1O)CC[C@@H]1[C@@H]2CC[C@]2(C)[C@@H](O)CC[C@@H]12 [2-methoxyestradiol] (1 nM) | 96.7% | 103% | 94.9% | 97.3% | 122% | 102% | 99% | 97.8% | 104% | 98.8% | 97.1% | 106% | 92.5% | 104% | 101% | 106% | 104% | 95.9% | 87.2% | 102% | 96.4% | 92.1% | 102% | 112% | 91.6% | 107% | 88.9% | 101% | 87.5% | 97.1% | 105% | 88.8% | 115% | 95.5% | 103% | 102% | 89.3% |
| CC[C@@H]1C(=O)OC[C@@H]1Cc1cncn1C [Pilocarpine] (4 nM) | 91.7% | 101% | 94% | 96.4% | 123% | 95% | 100% | 93.7% | 76.7% | 92.8% | 95.7% | 103% | 94.6% | 96.1% | 79.3% | 111% | 98.4% | 101% | 99.2% | 74.9% | 103% | 100% | 108% | 108% | 96.3% | 99.7% | 97.6% | 85.4% | 94.3% | 133% | 92.9% | 97.1% | 113% | 99.1% | 104% | 88.8% | 91.8% |
| O=C1CN2Cc3c(ccc(Cl)c3Cl)N=C2N1 [Anagrelide] (1 nM) | 90.6% | 101% | 92.8% | 90.2% | 110% | 99.5% | 102% | 100% | 105% | 97.1% | 110% | 100% | 94% | 97.2% | 86% | 109% | 103% | 98.8% | 104% | 122% | 113% | 84.6% | 103% | 105% | 88.7% | 109% | 90.1% | 87.8% | 68.3% | 112% | 119% | 102% | 80.8% | 105% | 101% | 98.9% | 96.1% |
| Nc1nc2[nH]cnc2c(=S)[nH]1 [Thioguanine] (1 nM) | 98.1% | 104% | 93.3% | 95.3% | 77.6% | 92.8% | 96.7% | 98.9% | 105% | 92.8% | 98.4% | 101% | 101% | 96.2% | 94% | 98.1% | 94.5% | 94.1% | 94.2% | 100% | 98.8% | 97.5% | 107% | 104% | 98.1% | 105% | 95.3% | 110% | 90.2% | 111% | 136% | 92.8% | 101% | 104% | 104% | 98.4% | 99.9% |
| Cn1cnc2c(F)c(Nc3ccc(Br)cc3Cl)c(C(=O)NOCCO)cc21 [Selumetinib] (1 nM) | 84.7% | 103% | 93.3% | 87.8% | 99.8% | 104% | 95.5% | 89.6% | 93.2% | 89.5% | 91.4% | 99% | 81.2% | 97% | 80.8% | 111% | 93.8% | 94.9% | 96.5% | 104% | 102% | 81% | 107% | 113% | 90.1% | 102% | 90.6% | 98.5% | 100% | 107% | 107% | 89% | 97.6% | 109% | 101% | 83.6% | 94% |
| CC1=C2C[C@H]3[C@@H](CC=C4C[C@@H](O)CC[C@@]43C)[C@@H]2CC[C@]12O[C@@H]1C[C@H](C)CN[C@H]1[C@H]2C [Cyclopamine] (1 nM) | 103% | 104% | 107% | 123% | 107% | 100% | 106% | 103% | 98.1% | 106% | 103% | 103% | 108% | 103% | 106% | 111% | 101% | 103% | 115% | 118% | 111% | 94% | 117% | 109% | 94.5% | 120% | 97.4% | 96.5% | 109% | 135% | 121% | 100% | 126% | 102% | 103% | 97.5% | 97.3% |
| O=NN(CCCl)C(=O)NCCCl [Carmustine] (1 nM) | 97% | 97.1% | 100% | 89.3% | 87.1% | 94.4% | 103% | 97.8% | 103% | 97.6% | 99.3% | 100% | 87.3% | 98.2% | 80% | 109% | 98.1% | 94.2% | 90.5% | 87.5% | 103% | 94.2% | 115% | 107% | 87.8% | 120% | 90.5% | 97% | 88.8% | 111% | 134% | 133% | 75.7% | 108% | 106% | 93.5% | 99.8% |
